# Calls of active or inactive are those of the source. The rule behind the calls is not given here.
# How the values were obtained:
# [1] = target: T1, Nuclear receptor subfamily 1 group I member 2 (Homo sapiens, UniProt O75469); assay: Activity at PXR in human hepatocytes assessed as induction of CYP3A4 activity at 1 uM relative rifampicin; assay type: cell-based, Hepatocyte
# T1 sequence (O75469 whole entry): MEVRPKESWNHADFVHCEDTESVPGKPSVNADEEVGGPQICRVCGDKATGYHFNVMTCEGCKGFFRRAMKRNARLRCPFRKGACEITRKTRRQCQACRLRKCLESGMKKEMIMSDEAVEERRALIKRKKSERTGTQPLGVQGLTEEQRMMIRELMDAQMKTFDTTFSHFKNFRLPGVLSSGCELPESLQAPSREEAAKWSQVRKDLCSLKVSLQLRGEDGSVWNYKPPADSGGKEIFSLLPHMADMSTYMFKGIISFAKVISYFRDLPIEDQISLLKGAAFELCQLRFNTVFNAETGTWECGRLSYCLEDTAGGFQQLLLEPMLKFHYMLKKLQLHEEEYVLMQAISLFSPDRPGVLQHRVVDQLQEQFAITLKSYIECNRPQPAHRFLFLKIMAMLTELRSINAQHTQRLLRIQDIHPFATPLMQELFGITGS
# Mu-type opioid receptor [2] = target: T2, Mu-type opioid receptor (Homo sapiens, UniProt P35372); assay: Agonist activity at human mu opioid receptor assessed as stimulation of GTPgammaS binding at 10 uM; assay type: functional
# T2 sequence (P35372 whole entry): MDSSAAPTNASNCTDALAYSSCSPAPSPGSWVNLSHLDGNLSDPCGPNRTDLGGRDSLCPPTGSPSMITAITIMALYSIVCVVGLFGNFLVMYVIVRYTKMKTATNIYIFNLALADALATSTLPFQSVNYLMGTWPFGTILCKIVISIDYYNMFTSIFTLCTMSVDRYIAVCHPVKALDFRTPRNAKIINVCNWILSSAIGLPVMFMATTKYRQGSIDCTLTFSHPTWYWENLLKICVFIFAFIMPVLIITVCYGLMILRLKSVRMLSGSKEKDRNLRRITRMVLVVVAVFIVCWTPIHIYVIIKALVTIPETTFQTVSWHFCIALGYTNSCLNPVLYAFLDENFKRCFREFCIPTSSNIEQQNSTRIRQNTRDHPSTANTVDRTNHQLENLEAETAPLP
# Nociceptin receptor [3] = target: T3, Nociceptin receptor (Homo sapiens, UniProt P41146); assay: Agonist activity at human cloned ORL1 receptor assessed as stimulation of GTPgammaS binding at 10 uM; assay type: functional
# T3 sequence (P41146 whole entry): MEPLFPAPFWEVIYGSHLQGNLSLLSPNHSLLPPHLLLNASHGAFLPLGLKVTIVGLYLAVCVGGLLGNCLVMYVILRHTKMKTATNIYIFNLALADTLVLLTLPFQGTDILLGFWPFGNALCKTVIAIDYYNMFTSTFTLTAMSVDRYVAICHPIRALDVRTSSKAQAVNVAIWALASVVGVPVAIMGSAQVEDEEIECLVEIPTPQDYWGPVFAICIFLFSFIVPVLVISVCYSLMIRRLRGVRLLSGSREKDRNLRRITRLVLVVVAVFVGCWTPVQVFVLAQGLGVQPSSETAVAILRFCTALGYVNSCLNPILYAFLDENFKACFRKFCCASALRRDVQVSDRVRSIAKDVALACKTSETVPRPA
# Mu-type opioid receptor [4] = target: T2, Mu-type opioid receptor; assay: Agonist activity at human mu opioid assessed as stimulation of GTPgammaS binding; assay type: functional
# Nociceptin receptor [5] = target: T3, Nociceptin receptor; assay: Displacement of [125I][Tyr14]nociceptin from human cloned ORL1 receptor expressed in CHO cells; assay type: cell-based
# Nociceptin receptor [6] = target: T3, Nociceptin receptor; assay: Agonist activity at human cloned ORL1 receptor assessed as stimulation of GTPgammaS binding; assay type: functional
# Mu-type opioid receptor [7] = target: T2, Mu-type opioid receptor; assay: Displacement of [3H]diprenorphine from human mu opioid receptor expressed in CHO cells; assay type: cell-based
# Homo sapiens = organism: Homo sapiens; assay: Selectivity for human cloned ORL1 receptor over human mu opioid receptor
# Cavia porcellus [8] = assay: Anxiolytic like activity in guinea pig assessed as reduction in number of vocalization produced due to separation measured at 3 mg/kg, po after 2 hrs; assay type: functional, organism-based; design: dose 3 mg/kg
# Cavia porcellus [9] = assay: Antitussive activity in guinea pig GPPV model assessed as reduction of capsaicin-induced coughing at 0.3 mg/kg, po after 2 hrs administered 15 mins before capsaicin challenge; assay type: functional; design: scale not given: the % may be the effect or the level left
# Cavia porcellus [10] = assay: Antitussive activity in po dosed guinea pig GPPV model assessed as reduction of capsaicin-induced coughing after 2 hrs administered 15 mins before capsaicin challenge; assay type: functional
# Nociceptin receptor [11] = target: T3, Nociceptin receptor; assay: Agonist activity at human cloned ORL1 receptor assessed as stimulation of GTPgammaS binding at 5.5 uM; assay type: functional
# Mu-type opioid receptor [12] = target: T2, Mu-type opioid receptor; assay: Agonist activity at human mu opioid receptor assessed as stimulation of GTPgammaS binding at 5.5 uM; assay type: functional
# [13] = target: Kappa-type opioid receptor (Homo sapiens, UniProt P41145); assay: Displacement of [3H]diprenorphine from human kappa opioid receptor expressed in CHO cells; assay type: cell-based
# Sequence of Kappa-type opioid receptor (P41145 whole entry): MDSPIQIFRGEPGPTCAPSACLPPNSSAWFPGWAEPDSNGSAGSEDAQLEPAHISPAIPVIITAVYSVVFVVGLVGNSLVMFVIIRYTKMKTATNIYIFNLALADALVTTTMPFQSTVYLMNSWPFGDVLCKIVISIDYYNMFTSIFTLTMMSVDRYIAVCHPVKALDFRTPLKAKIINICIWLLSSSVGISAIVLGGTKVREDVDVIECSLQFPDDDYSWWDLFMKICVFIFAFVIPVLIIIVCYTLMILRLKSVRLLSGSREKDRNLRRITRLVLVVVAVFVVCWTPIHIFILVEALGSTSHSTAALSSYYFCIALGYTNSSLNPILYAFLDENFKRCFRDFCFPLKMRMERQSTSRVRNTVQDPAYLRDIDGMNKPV
# Rattus norvegicus = organism: Rattus norvegicus; assay: Anxiolytic like activity in rat assessed as conditioned lick suppression after 2 hrs; assay type: functional
# Cavia porcellus [14] = organism: Cavia porcellus; assay: Anxiolytic like activity in guinea pig assessed as reduction in number of vocalization produced due to separation measured after 2 hrs; assay type: functional
# [15] = target: Delta-type opioid receptor (Homo sapiens, UniProt P41143); assay: Displacement of [3H]diprenorphine from human delta opioid receptor expressed in CHO cells; assay type: cell-based
# Sequence of Delta-type opioid receptor (P41143 whole entry): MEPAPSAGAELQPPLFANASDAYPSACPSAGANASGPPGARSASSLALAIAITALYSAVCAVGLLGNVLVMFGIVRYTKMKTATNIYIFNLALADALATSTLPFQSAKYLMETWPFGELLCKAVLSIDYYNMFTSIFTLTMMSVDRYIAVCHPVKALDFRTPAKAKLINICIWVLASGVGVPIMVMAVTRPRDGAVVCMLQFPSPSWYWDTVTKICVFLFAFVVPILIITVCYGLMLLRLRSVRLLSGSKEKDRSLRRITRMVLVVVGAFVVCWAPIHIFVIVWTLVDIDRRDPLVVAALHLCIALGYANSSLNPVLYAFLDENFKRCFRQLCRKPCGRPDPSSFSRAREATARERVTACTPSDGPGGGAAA
# [16] = Ratio of ED50 for antitussive activity in guinea pig GPPV model to ED50 for anxiolytic like activity in rat; assay type: functional
Structure (SMILES),Ratio [1],Ki (Nociceptin receptor [5]) [nM],Ki (Mu-type opioid receptor [7]) [nM],fold change (FC) (Homo sapiens),other results
NC(=O)[C@@]1(Cc2ccc(F)cc2)C[C@H]2CC[C@@H](C1)N2C(c1ccccc1Cl)c1ccccc1Cl,0.48,3,85,,Activity (Mu-type opioid receptor [2]): 107%; Activity (Nociceptin receptor [3]): 108%; EC50 (Mu-type opioid receptor [4]): 540 nM; EC50 (Nociceptin receptor [6]): 11 nM
NC(=O)[C@]1(c2cc(F)cc(F)n2)C[C@H]2CC[C@@H](C1)N2C(c1ccccc1Cl)c1ccccc1Cl,0.55,15,468,,
NC(=O)C1(C2CCCCN2)C[C@H]2CC[C@H](C1)N2C(c1ccccc1Cl)c1ccccc1Cl (relative stereo),,17,474,,
NC(=O)[C@]1(c2ccc(Br)cn2)C[C@H]2CC[C@@H](C1)N2C(c1ccccc1Cl)c1ccccc1Cl,0.09,29,153,4,Activity (Mu-type opioid receptor [2]): 89%; Activity (Nociceptin receptor [3]): 75%; EC50 (Mu-type opioid receptor [4]): 421 nM; EC50 (Nociceptin receptor [6]): 63 nM
NC(=O)C[C@]1(Cc2ccc(F)cc2)C[C@H]2CC[C@@H](C1)N2C(c1ccccc1Cl)c1ccccc1Cl,0.35,3,190,63,Activity (Cavia porcellus [8]): inactive; Activity (Cavia porcellus [9]): 38%
Cc1ccc([C@@]2(C(N)=O)C[C@H]3CC[C@@H](C2)N3C(c2ccccc2Cl)c2ccccc2Cl)nc1,0.4,6,26,,
NC(=O)[C@]1(c2cccc(F)n2)C[C@H]2CC[C@@H](C1)N2C(c1ccccc1Cl)c1ccccc1Cl,1.06,10,348,35,
NC(=O)[C@]1(Cc2ccc(Cl)cc2)C[C@H]2CC[C@@H](C1)N2C(c1ccccc1Cl)c1ccccc1Cl,0.67,10,284,,
N[C@]1(c2ccc(F)cn2)C[C@H]2CC[C@@H](C1)N2C(c1ccccc1Cl)c1ccccc1Cl,0.23,7,209,32,Activity (Cavia porcellus [9]): inactive
NC(=O)[C@]1(c2cc(CF)c(F)cn2)C[C@H]2CC[C@@H](C1)N2C(c1ccccc1Cl)c1ccccc1Cl,0.77,19,367,,
N[C@]1(c2ccccn2)C[C@H]2CC[C@@H](C1)N2C(c1ccccc1Cl)c1ccccc1Cl,0.47,10,343,32,Activity (Cavia porcellus [9]): inactive
CC(=O)N[C@]1(c2ccc(F)cn2)C[C@H]2CC[C@@H](C1)N2C(c1ccccc1Cl)c1ccccc1Cl,1.47,10,601,60,
NC(=O)[C@]1(c2ncc(F)cc2F)C[C@H]2CC[C@@H](C1)N2C(c1ccccc1Cl)c1ccccc1Cl,,47,,,
NC(=O)[C@]1(c2ccc(O)cn2)C[C@H]2CC[C@@H](C1)N2C(c1ccccc1Cl)c1ccccc1Cl,,72,,4,
N#Cc1ccc([C@@]2(C(N)=O)C[C@H]3CC[C@@H](C2)N3C(c2ccccc2Cl)c2ccccc2Cl)nc1,,75,481,4,
N[C@]1(Cc2ccc(Cl)cc2)C[C@H]2CC[C@@H](C1)N2C(c1ccccc1Cl)c1ccccc1Cl,,36,447,,
NC(=O)C[C@]1(Cc2ccc(O)cc2)C[C@H]2CC[C@@H](C1)N2C(c1ccccc1Cl)c1ccccc1Cl,0.51,17,,,
NC(=O)[C@]1(c2ccncc2)C[C@H]2CC[C@@H](C1)N2C(c1ccccc1Cl)c1ccccc1Cl,,79,265,20,
COC(=O)c1ccc([C@@]2(C(N)=O)C[C@H]3CC[C@@H](C2)N3C(c2ccccc2Cl)c2ccccc2Cl)nc1,,> 1000,,4,
COC(=O)NC1(c2ccc(F)cn2)C[C@H]2CC[C@H](C1)N2C(c1ccccc1Cl)c1ccccc1Cl (relative stereo),1.38,12,887,74,

Structure (SMILES),Ratio [1],Ki (Nociceptin receptor [5]) [nM],Ki (Mu-type opioid receptor [7]) [nM],fold change (FC) (Homo sapiens),other results
COC(=O)N[C@]1(c2ccc(Cl)cn2)C[C@H]2CC[C@@H](C1)N2C(c1ccccc1Cl)c1ccccc1Cl,1.06,12,961,74,
CC(=O)NC[C@]1(c2ccccc2)C[C@H]2CC[C@@H](C1)N2C(c1ccccc1Cl)c1ccccc1Cl,0.94,20,,,ED50 (Cavia porcellus [10]): 0.19 mg/kg; EC50 (Nociceptin receptor [6]): 269 nM
COC(=O)N[C@]1(Cc2ccc(Cl)cc2)C[C@H]2CC[C@@H](C1)N2C(c1ccccc1Cl)c1ccccc1Cl,1.1,56,,,Activity (Nociceptin receptor [11]): 85%; Activity (Mu-type opioid receptor [12]): 59%; EC50 (Mu-type opioid receptor [4]): 1560 nM; EC50 (Nociceptin receptor [6]): 14 nM
NC(=O)[C@]1(c2cc(C(=O)O)c(F)cn2)C[C@H]2CC[C@@H](C1)N2C(c1ccccc1Cl)c1ccccc1Cl,,> 1000,,,
NC(=O)c1ccc([C@@]2(C(N)=O)C[C@H]3CC[C@@H](C2)N3C(c2ccccc2Cl)c2ccccc2Cl)nc1,,401,1320,4,
NC(=O)[C@]1(c2ccc(F)cn2)C[C@H]2CC[C@@H](C1)N2C(c1ccccc1Cl)c1ccccc1Cl,0.29,7,123,37,Ki [13]: 1610 nM; ED50 (Rattus norvegicus): 1.7 mg/kg; Activity (Nociceptin receptor [3]): 95%; ED50 (Cavia porcellus [14]): 0.3 mg/kg; Ki [15]: 3350 nM; EC50 (Mu-type opioid receptor [4]): 733 nM; ED50 (Cavia porcellus [10]): 0.02 mg/kg; Ratio ED50 [16]: 15; EC50 (Nociceptin receptor [6]): 20 nM
COc1ccc([C@@]2(C(N)=O)C[C@H]3CC[C@@H](C2)N3C(c2ccccc2Cl)c2ccccc2Cl)nc1,0.19,22,133,,
NC(=O)[C@]1(c2ccc(Br)nc2)C[C@H]2CC[C@@H](C1)N2C(c1ccccc1Cl)c1ccccc1Cl,,13,46,,
NC(=O)[C@]1(c2ccccn2)C[C@H]2CC[C@@H](C1)N2C(c1ccccc1Cl)c1ccccc1Cl,0.79,4,52,,
COc1ccc2c3c1O[C@H]1[C@@H](O)C=C[C@H]4[C@@H](C2)N(C)CC[C@@]341 [CODEINE],,,,,ED50 (Cavia porcellus [10]): 6.7 mg/kg
NC(=O)[C@]1(c2ccc(Cl)cn2)C[C@H]2CC[C@@H](C1)N2C(c1ccccc1Cl)c1ccccc1Cl,0.27,15,143,,ED50 (Rattus norvegicus): 2.4 mg/kg; Activity (Mu-type opioid receptor [2]): 97%; Activity (Nociceptin receptor [3]): 145%; EC50 (Mu-type opioid receptor [4]): 368 nM; EC50 (Nociceptin receptor [6]): 44 nM
NC(=O)[C@]1(c2ccc(N)cn2)C[C@H]2CC[C@@H](C1)N2C(c1ccccc1Cl)c1ccccc1Cl,,31,205,4,
NC(=O)[C@]1(c2cc(F)c(F)cn2)C[C@H]2CC[C@@H](C1)N2C(c1ccccc1Cl)c1ccccc1Cl,0.18,9,74,,
CN(C)[C@]1(c2ccccn2)C[C@H]2CC[C@@H](C1)N2C(c1ccccc1Cl)c1ccccc1Cl,,42,840,,
NC(=O)[C@]1(c2ccc(C(F)(F)F)cn2)C[C@H]2CC[C@@H](C1)N2C(c1ccccc1Cl)c1ccccc1Cl,,122,,4,
NC(=O)[C@]1(c2cccnc2)C[C@H]2CC[C@@H](C1)N2C(c1ccccc1Cl)c1ccccc1Cl,0.4,3,71,,
CC(=O)N[C@]1(c2ccccn2)C[C@H]2CC[C@@H](C1)N2C(c1ccccc1Cl)c1ccccc1Cl,1.97,6,312,52,Activity (Mu-type opioid receptor [2]): 68%; Activity (Nociceptin receptor [3]): 84%; EC50 (Mu-type opioid receptor [4]): 1930 nM; EC50 (Nociceptin receptor [6]): 19 nM
NC(=O)[C@]1(c2nc(F)ccc2F)C[C@H]2CC[C@@H](C1)N2C(c1ccccc1Cl)c1ccccc1Cl,0.83,16,,,
COC(=O)N[C@]1(c2ccccn2)C[C@H]2CC[C@@H](C1)N2C(c1ccccc1Cl)c1ccccc1Cl,0.98,10,741,74,Activity (Mu-type opioid receptor [2]): 52%; Activity (Nociceptin receptor [3]): 92%; EC50 (Mu-type opioid receptor [4]): 3780 nM; EC50 (Nociceptin receptor [6]): 87 nM

# Reference: ChEMBL document CHEMBL1138605, “Identification of 3-substituted N-benzhydryl-nortropane analogs as nociceptin receptor ligands for the management of cough and anxiety” (Bioorg Med Chem Lett, 2009)
